# “And” between values parts separate entries of the source, which are not always exact repeats. Equal values may be shown once. Read-outs that look alike come from different tables or passages of the source. Where a SMILES comes first, the peptide text is derived from it. [ ]: non-standard residue; d: D form. NMeTrp(1-Me) = CN[C@@H](Cc1cn(C)c2ccccc12)C(=O)O; NMeLeu(5-OH,4R) = CN[C@@H](C[C@@H](C)CO)C(=O)O; Phe(βR-OMe) = CO[C@H](c1ccccc1)[C@H](N)C(=O)O; Trp(1-Me) = Cn1cc(C[C@H](N)C(=O)O)c2ccccc21; NMeL = CN[C@@H](CC(C)C)C(=O)O
# Key:
# [1] = target: ClpC1 NTD protein (M. tuberculosis) (Mycobacterium tuberculosis, UniProt P9WPC9); test: biochemical; format: binding
# Chain of ClpC1 NTD protein (M. tuberculosis) (P9WPC9 1-156, looked up, natural form): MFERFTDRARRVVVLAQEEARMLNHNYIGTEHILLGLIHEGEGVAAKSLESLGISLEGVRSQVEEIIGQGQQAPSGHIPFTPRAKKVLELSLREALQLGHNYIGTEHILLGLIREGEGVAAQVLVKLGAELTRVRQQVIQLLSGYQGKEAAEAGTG
# [2] = in vitro; settings: human; for efflux ratio: Caco-2
# Procedure, shortened: (§1)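 Values are bidirectional Caco-2 apparent permeabilities, P(A−B) and P(B−A), given in 10^-6 cm s-1. The efflux ratio divides P(B−A) by P(A−B), and intrinsic permeability averages the two directions.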
# [3] = test system: Caco-2 monolayers; test: in vitro; settings: human, Caco-2
# Procedure, shortened: as §1
# [4] = format: in vitro ADME, Mice; settings: for Microsomal Stability Mice: clearance in microsomes
# Experimental: (§2) The kinetics of compound degradation in liver microsomes is assessed in an assay with 1 µmol/l of compound and 0.5 mg/ml liver microsomes in a medium of 100 mM Tris-HCl pH 7.5, 6.5 mM MgCl2 and 1 mM NADPH at 37 °C. The reaction is stopped at multiple time points by adding acetonitrile. After centrifugation, the compound concentration is measured in the supernatants by high-performance liquid chromatography (HPLC) tandem mass spectrometry (MS/MS). The results are fitted to a first-order decay and the half-lives are converted to clearance (stated as % of the liver blood flow (%Qh)) using the well-stirred liver model.
# [5] = format: in vitro ADME, Rat; settings: for Microsomal Stability Rat: clearance in microsomes
# Experimental: as §2
# [6] = Microsomal stability, human; format: in vitro ADME; settings: for Microsomal Stability Human: clearance in microsomes
# Procedure, shortened: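 Clearance, expressed as % liver blood flow (%Qh), derived by the well-stirred model from first-order half-lives. Depletion monitored by HPLC-MS/MS in acetonitrile-stopped samples over time; 37 °C, NADPH 1 mM, microsomes 0.5 mg/ml, compound 1 µmol/l, Tris-HCl pH 7.5 with MgCl2.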
# [7] = Hepatocyte stability, mice; format: in vitro ADME; settings: mouse, pH 7.4
# Procedure, shortened: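 Clearance expressed as % of liver blood flow (% Qh), derived from half-life via the well-stirred liver model. Compound at 1 µM final was incubated up to 6 h with ~1 million cells/mL hepatocytes in 50% serum buffer, 37 °C, pH 7.4.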
# [8] = format: in vitro ADME, Rat; settings: rat, pH 7.4
# [9] = format: in vitro ADME, Human; settings: human, pH 7.4
# [10] = test system: M. tuberculosis H37Rv (ATCC 27294); test: microbe, parasite or virus in culture; format: cell-based; settings: Mycobacterium tuberculosis
# [11] = test system: Msm 607; test: microbe, parasite or virus in culture; format: cell-based
# [12] = test system: Msm 700084; test: microbe, parasite or virus in culture; format: cell-based
# [13] = target: His6-tagged ClpC1-NTD substrate, M. smegmatis ClpC1P1P2 (UniProt A0R574+P9WPC9); test: biochemical; format: biochemical; settings: Msm
# Chain of His6-tagged ClpC1-NTD substrate, M. smegmatis ClpC1P1P2 (P9WPC9 1-156, looked up, natural form): as above
# Chain of His6-tagged ClpC1-NTD substrate, M. smegmatis ClpC1P1P2 (A0R574 whole entry): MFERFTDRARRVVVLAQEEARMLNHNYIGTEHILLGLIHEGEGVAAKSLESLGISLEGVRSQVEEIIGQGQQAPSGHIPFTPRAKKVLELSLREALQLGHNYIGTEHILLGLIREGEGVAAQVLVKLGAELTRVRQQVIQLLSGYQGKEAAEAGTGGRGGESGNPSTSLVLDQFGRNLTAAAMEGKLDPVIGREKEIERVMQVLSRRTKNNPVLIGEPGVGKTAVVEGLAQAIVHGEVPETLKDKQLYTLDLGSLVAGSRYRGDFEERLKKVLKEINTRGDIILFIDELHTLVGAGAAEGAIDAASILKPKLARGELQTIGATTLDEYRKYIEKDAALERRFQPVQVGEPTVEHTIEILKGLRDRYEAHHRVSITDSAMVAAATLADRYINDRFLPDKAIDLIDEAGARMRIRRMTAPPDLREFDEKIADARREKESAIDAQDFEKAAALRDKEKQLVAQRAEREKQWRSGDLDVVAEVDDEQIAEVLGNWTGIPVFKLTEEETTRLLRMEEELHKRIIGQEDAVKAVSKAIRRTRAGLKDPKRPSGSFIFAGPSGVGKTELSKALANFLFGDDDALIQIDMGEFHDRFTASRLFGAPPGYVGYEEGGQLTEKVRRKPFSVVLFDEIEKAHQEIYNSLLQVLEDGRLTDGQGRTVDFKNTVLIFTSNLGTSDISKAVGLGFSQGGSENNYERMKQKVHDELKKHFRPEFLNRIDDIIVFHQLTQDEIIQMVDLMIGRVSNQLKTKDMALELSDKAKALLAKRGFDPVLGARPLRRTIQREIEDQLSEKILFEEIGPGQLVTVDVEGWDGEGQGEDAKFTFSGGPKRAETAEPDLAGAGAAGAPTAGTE
# [14] = target: ClpC1-NTD substrate, M. tuberculosis ClpC1P1P2 (Mycobacterium tuberculosis, UniProt P9WPC9); test: biochemical; format: biochemical; settings: Mtb
# Chain of ClpC1-NTD substrate, M. tuberculosis ClpC1P1P2 (P9WPC5 whole entry): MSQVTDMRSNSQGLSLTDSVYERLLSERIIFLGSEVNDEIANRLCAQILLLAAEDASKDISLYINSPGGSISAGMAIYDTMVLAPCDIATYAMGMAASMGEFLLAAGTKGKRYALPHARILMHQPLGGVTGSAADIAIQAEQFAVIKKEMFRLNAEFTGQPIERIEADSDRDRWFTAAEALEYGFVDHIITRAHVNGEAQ
# Chain of ClpC1-NTD substrate, M. tuberculosis ClpC1P1P2 (P9WPC9 whole entry): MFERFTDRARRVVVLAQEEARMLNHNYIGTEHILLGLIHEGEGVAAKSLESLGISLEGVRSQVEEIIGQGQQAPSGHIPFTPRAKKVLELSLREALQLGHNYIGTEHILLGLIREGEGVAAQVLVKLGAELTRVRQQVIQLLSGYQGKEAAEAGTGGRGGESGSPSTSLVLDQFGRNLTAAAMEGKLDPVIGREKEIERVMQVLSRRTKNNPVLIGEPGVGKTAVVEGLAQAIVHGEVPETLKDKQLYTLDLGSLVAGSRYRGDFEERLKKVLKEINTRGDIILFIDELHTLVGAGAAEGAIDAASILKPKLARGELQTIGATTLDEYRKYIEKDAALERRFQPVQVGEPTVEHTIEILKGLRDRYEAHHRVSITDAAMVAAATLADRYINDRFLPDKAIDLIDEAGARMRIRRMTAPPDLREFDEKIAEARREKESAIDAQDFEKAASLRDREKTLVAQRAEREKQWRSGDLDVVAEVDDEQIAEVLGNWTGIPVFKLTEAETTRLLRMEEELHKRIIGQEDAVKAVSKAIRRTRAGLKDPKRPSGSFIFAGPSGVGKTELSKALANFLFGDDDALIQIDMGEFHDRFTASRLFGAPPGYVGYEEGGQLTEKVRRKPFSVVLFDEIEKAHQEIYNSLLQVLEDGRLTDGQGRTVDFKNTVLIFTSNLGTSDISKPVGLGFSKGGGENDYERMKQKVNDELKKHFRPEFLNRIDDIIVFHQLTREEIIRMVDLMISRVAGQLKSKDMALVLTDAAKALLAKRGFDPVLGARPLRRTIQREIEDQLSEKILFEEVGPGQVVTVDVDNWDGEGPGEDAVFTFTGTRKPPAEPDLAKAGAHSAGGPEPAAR
# Chain of ClpC1-NTD substrate, M. tuberculosis ClpC1P1P2 (P9WPC3 whole entry, further chain): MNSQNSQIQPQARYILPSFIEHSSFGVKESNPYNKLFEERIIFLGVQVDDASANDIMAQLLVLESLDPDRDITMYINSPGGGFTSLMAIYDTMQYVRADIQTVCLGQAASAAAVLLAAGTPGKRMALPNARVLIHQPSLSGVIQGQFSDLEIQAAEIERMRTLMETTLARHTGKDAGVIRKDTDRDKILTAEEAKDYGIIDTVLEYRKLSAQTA
# [15] = SPR dissociation rate constant, read-out: koff ClpC1-NTD Mean ± SD
# [16] = SPR, single independent measurements
# [17] = SPR, single independent measurements, read-out: koff ClpC1-NTD
# [18] = Caco-2, Caco-2 permeability P (A-B)
# [19] = Mtb H37Rv (Supplementary Table 2), read-out: MIC Mtb
# [20] = single determinations, read-out: Mtb MIC
# [21] = Mycolicibacterium smegmatis, 607, read-out: MIC Msm 607
# [22] = Mycolicibacterium smegmatis, 607, read-out: Msm 607 MIC, single determinations
# [23] = Mycolicibacterium smegmatis, 700084, single determinations, read-out: Msm 700084 MIC
# [24] = Mycolicibacterium smegmatis, 700084, read-out: MIC Msm 700084
# [25] = mean of the measurements, read-out: 1-Dmax, Mean
# [26] = mean of the measurements, read-out: DC50, Mean
# [27] = SPR (Supplementary Table 1), read-out: KD ClpC1-NTD Mean ± SD
# [28] = SPR, single independent measurements, read-out: KD ClpC1-NTD
SMILES,"koff [1, 15] [s⁻¹]","koff ClpC1-NTD [1, 16]","Papp A→B [2, 18] [×10⁻⁶ cm/s]",Caco-2 Int. Perm [3],Microsomal Stability Mouse QH [4] [%],Microsomal Stability Mice [4] [%Qh],Microsomal Stability Rat QH [5] [%],Microsomal Stability Rat [5] [%Qh],Microsomal Stability Human QH [6] [%],Microsomal Stability Human [6] [%Qh],Hepatocyte Mice [7] [%Qh],Hepatocyte Rat [8] [%Qh],Hepatocyte Stability Rat QH [8] [%],Hepatocyte Stability Human QH [9] [%],"MIC [10, 19] [µM]","MIC [10, 20] [µM]","MIC [11, 21] [µM]","MIC [11, 22] [µM]","MIC [12, 23] [µM]","MIC [12, 24] [µM]",further results
CO[C@H](c1ccccc1)[C@@H]1NC(=O)[C@H](C)NC(=O)[C@H](C[C@@H](C)CO)N(C)C(=O)[C@H](Cc2cn(Cc3cn(CCOCCOCCOCCOCCn4cc(Cn5cc(C[C@H]6C(=O)N(C)[C@@H](C[C@@H](C)CO)C(=O)N[C@@H](C)C(=O)N[C@@H]([C@H](OC)c7ccccc7)C(=O)N[C@@H](C(C)C)C(=O)N(C)[C@@H](CC(C)C)C(=O)N[C@@H](C(C)C)C(=O)N6C)c6ccccc65)nn4)nn3)c3ccccc23)N(C)C(=O)[C@H](C(C)C)NC(=O)[C@H](CC(C)C)N(C)C(=O)[C@H](C(C)C)NC1=O [Compound 27],0.002,2E-3 2E-3 1/s,< 6.4,4.1,77.100,77,41.300,41,>88.400,> 88,15,6,6.192,12.386,< 0.1,< 0.1,1.6,1.56,0.78,0.8,"Kd ([1]; SPR, individual measurements (source data), read-out: KD ClpC1-NTD): 0.3 nM and 0.576 nM; koff [1, 17]: 0.002 s⁻¹; Kd ([1]; SPR, read-out: ClpC1-NTD KD Mean ± SD): 0.4 ± 0.2 nM; Papp B→A ([2]; Caco-2, Caco-2 permeability P (B-A)): < 1.7 ×10⁻⁶ cm/s; Hepatocyte Human [9]: 12 %Qh; MIC ([10]; M. tuberculosis H37Rv strain, read-out: MIC Mtb H37Rv Mean ± SD): < 0.1 µM; MIC ([10]; individual measurements (source data), read-out: Mtb MIC): < 0.1 µM; 1-Dmax, single measurements ([13]; Measurement 1-6): 93.8% and 90.4%; 1-Dmax (percent substrate remaining at maximal degradation) ([13]; Measurement 1-6, read-out: 1-Dmax, single measurements): 89.3%; 1-Dmax (percent substrate remaining at maximal degradation) [13, 25]: 91%; DC50 [13, 26]: 12500 nM; 1-Dmax, single measurements ([14]; Measurement 1-4): 70.9% and 71.4% and 79.4%; 1-Dmax (percent substrate remaining at maximal degradation) ([14]; Measurement 1-4, read-out: 1-Dmax, single measurements): 75.3%; 1-Dmax (percent substrate remaining at maximal degradation) [14, 25]: 74%; DC50 [14, 26]: 24700 nM"
"CO[C@H](c1ccccc1)[C@@H]1NC(=O)[C@H](C)NC(=O)[C@H](C[C@@H](C)CO)N(C)C(=O)[C@H](Cc2cn(C)c3ccccc23)NC(=O)[C@H](CCC(=O)N(C)C)NC(=O)[C@H](CC(C)C)N(C)C(=O)[C@H](C(C)C)NC1=O [SI-74] (cyclo(A[Phe(βR-OMe)]V[NMeL]E(NMe2)[Trp(1-Me)][NMeLeu(5-OH,4R)]))",–,–,< 0.5,1.7,83.700,84,60.700,85,85.000,61,38,49,48.537,12.386,3.1,3.12,0.8,0.78,6.25,9.4 ± 4.4,"Kd [1, 27]: 4 ± 2 nM; Kd [1, 28]: 3.28 nM and 5.58 nM; efflux ratio [2]: > 6; Papp A→B ([2]; Caco-2, CACO permeability PEAB): < 0.46 ×10⁻⁶ cm/s; Papp B→A ([2]; Caco-2, CACO permeability PEBA): 3.4 ×10⁻⁶ cm/s; Hepatocyte Stability Mouse QH [7]: 37.632%; Hepatocyte Human [9]: 12 %Qh; MIC ([12]; single determinations, read-out: Msm 700084 MIC): 12.500 µM"
"CO[C@H](c1ccccc1)[C@@H]1NC(=O)[C@H](C)NC(=O)[C@H](C[C@@H](C)CO)N(C)C(=O)[C@H](Cc2cn(C)c3ccccc23)N(C)C(=O)[C@H](CCC(=O)N(C)C)NC(=O)[C@H](CC(C)C)N(C)C(=O)[C@H](C(C)C)NC1=O [SI-76] (cyclo(A[Phe(βR-OMe)]V[NMeL]E(NMe2)[NMeTrp(1-Me)][NMeLeu(5-OH,4R)]))",0.06,6E-2 6E-2 1/s,< 0.1,4.3,>88.400,> 88,78.000,78,>88.400,> 88,23,52,52.287,19.852,6.3,6.25,12.5,12.5,25,25,"Kd [1, 27]: 26 ± 6 nM; Kd [1, 28]: 21.4 nM and 30.5 nM; koff [1, 17]: 0.06 s⁻¹; efflux ratio [2]: > 84; Papp A→B ([2]; Caco-2, CACO permeability PEAB): < 0.11 ×10⁻⁶ cm/s; Papp B→A ([2]; Caco-2, CACO permeability PEBA): 10 ×10⁻⁶ cm/s; Hepatocyte Stability Mouse QH [7]: 23.483%"
